Key:
Assay in all cases: relative viability (nuclei count vs DMSO), 5 days (fraction); higher = more cells survive
Axitinib + Vorinostat = compound: CNC(=O)c1ccccc1Sc1ccc2c(/C=C/c3ccccn3)n[nH]c2c1 [Axitinib] + O=C(CCCCCCC(=O)Nc1ccccc1)NO [Vorinostat] (partner 1 µM)
Procedure, shortened: (§1)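 Lung cancer cell lines were pin-tool dosed in 1536-well plates on the day after seeding, with either a lone drug or a fixed anchor-drug dose plus five library-drug doses (not always all listed) in √10 steps. Nuclei were counted on 4× images after 5 days. Relative viability is the ratio of treated-well to vehicle-well nuclei counts, with each value a median of duplicate plates.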

Axitinib + Decitabine = compound: CNC(=O)c1ccccc1Sc1ccc2c(/C=C/c3ccccn3)n[nH]c2c1 [Axitinib] + Nc1ncn([C@H]2C[C@H](O)[C@@H](CO)O2)c(=O)n1 [Decitabine] (partner 2 µM)
Procedure, shortened: as §1

Bemcentinib + Vorinostat = compound: Nc1nc(Nc2ccc3c(c2)CC[C@@H](N2CCCC2)CC3)nn1-c1cc2c(nn1)-c1ccccc1CCC2 [Bemcentinib] + O=C(CCCCCCC(=O)Nc1ccccc1)NO [Vorinostat] (partner 1 µM)
Procedure, shortened: as §1

Axitinib + Crizotinib = compound: CNC(=O)c1ccccc1Sc1ccc2c(/C=C/c3ccccn3)n[nH]c2c1 [Axitinib] + C[C@@H](Oc1cc(-c2cnn(C3CCNCC3)c2)cnc1N)c1c(Cl)ccc(F)c1Cl [Crizotinib] (partner 1 µM)
Procedure, shortened: as §1

Cell Line	relative viability (Axitinib + Vorinostat; first compound 0.005 µM)	relative viability (Axitinib + Vorinostat; first compound 0.01581 µM)	relative viability (Axitinib + Vorinostat; first compound 0.05 µM)	relative viability (Axitinib + Vorinostat; first compound 0.1581 µM)	relative viability (Axitinib + Vorinostat; first compound 0.5 µM)	relative viability (Axitinib + Decitabine; first compound 0.005 µM)	relative viability (Axitinib + Decitabine; first compound 0.01581 µM)	relative viability (Axitinib + Decitabine; first compound 0.05 µM)	relative viability (Axitinib + Decitabine; first compound 0.1581 µM)	relative viability (Axitinib + Decitabine; first compound 0.5 µM)	relative viability (Bemcentinib + Vorinostat; first compound 0.04 µM)	relative viability (Bemcentinib + Vorinostat; first compound 0.1265 µM)	relative viability (Bemcentinib + Vorinostat; first compound 0.4 µM)	relative viability (Bemcentinib + Vorinostat; first compound 1.265 µM)	relative viability (Bemcentinib + Vorinostat; first compound 4 µM)	relative viability (Axitinib + Crizotinib; first compound 0.005 µM)	relative viability (Axitinib + Crizotinib; first compound 0.01581 µM)	relative viability (Axitinib + Crizotinib; first compound 0.05 µM)	relative viability (Axitinib + Crizotinib; first compound 0.1581 µM)	relative viability (Axitinib + Crizotinib; first compound 0.5 µM)
UMC-11	0.323	0.339	0.401	0.408	0.36	0.597	0.577	0.577	0.615	0.553	0.387	0.359	0.344	0.321	0.376	0.556	0.59	0.59	0.584	0.482
PC-3 [JPC-3]	0.787	–	0.94	0.758	0.857	0.865	–	0.826	0.889	0.824	0.898	0.735	0.784	0.725	0.752	1.04	–	0.943	0.95	1.11
LU99A	0.514	0.472	0.56	0.465	0.409	0.719	0.987	0.761	0.905	0.857	0.472	0.482	0.468	0.477	0.436	0.552	0.541	0.628	0.525	0.648
NCI-H2087	0.618	0.626	0.741	0.699	0.936	0.289	0.254	0.22	0.186	0.293	0.567	0.836	1.1	0.665	0.678	0.986	0.912	0.914	0.767	0.825
LCLC-97TM1	0.889	0.734	0.756	0.804	0.766	0.193	0.275	0.266	0.247	0.234	0.727	0.703	0.702	0.633	0.829	0.433	0.524	0.265	0.377	0.314
BEN	0.609	0.637	0.635	0.592	0.551	0.795	0.758	0.771	0.782	0.635	0.567	0.627	0.562	0.56	0.6	0.897	1.04	0.788	0.807	0.925
NCI-H727	1.16	1.33	1.16	1.35	1.21	0.962	0.842	0.835	1.01	0.837	1.02	1.14	1.18	0.858	1.2	0.823	0.693	0.872	0.793	0.985
NCI-H1915	0.552	0.516	0.508	0.536	0.517	0.249	0.254	0.239	0.267	0.262	0.508	0.518	0.547	0.55	0.491	0.905	0.899	0.908	0.883	0.957
HARA	0.533	0.559	0.526	–	0.655	0.575	0.396	0.484	0.548	0.581	0.402	0.658	0.573	0.645	0.543	1.07	1.07	1.1	0.978	1.14
NCI-H1650	0.699	0.616	0.694	0.5	0.754	0.441	0.31	0.434	0.381	0.406	0.515	0.713	0.753	0.576	0.553	0.979	0.949	1.04	0.947	1.13
EMC-BAC-2	0.469	0.371	0.528	0.445	0.438	1.03	0.966	0.971	0.965	0.945	0.38	0.413	0.537	0.358	0.4	0.819	0.859	0.766	0.754	0.719
HCC-44	1.04	1.15	1.11	1.09	1.13	0.974	0.919	0.937	0.956	0.872	1.15	1.2	1.05	1.13	1.08	0.898	0.834	0.841	0.792	0.869
LOU-NH91	0.966	0.765	1.01	0.875	0.939	0.852	0.645	0.813	0.749	0.851	0.845	0.871	0.999	0.917	0.945	0.765	0.641	0.773	0.697	0.78
NCI-H3122	0.914	1.06	1.05	0.888	1.02	0.42	0.445	0.448	0.451	0.51	0.548	1.07	1.11	1.06	0.983	0.205	0.276	0.274	0.314	0.267
NCI-H1975	0.704	0.729	0.715	0.644	0.733	0.411	0.407	0.389	0.388	0.395	0.709	0.805	0.776	0.808	0.777	1.13	1.05	1.15	0.931	1.08
NCI-H661	0.79	0.861	0.776	0.779	0.873	0.594	0.503	0.588	0.549	0.597	0.774	0.778	0.849	0.789	0.838	0.976	1.03	0.995	1.02	1.08
NCI-H1651	0.563	0.542	0.537	0.548	0.59	0.576	0.579	0.611	0.619	0.594	0.532	0.557	0.569	0.476	0.613	0.904	0.858	0.707	0.842	0.861
NCI-H647	0.63	0.71	0.572	0.548	0.605	0.262	0.378	0.457	0.348	0.495	0.649	0.55	0.594	0.424	0.675	1.12	1.01	1.04	1.09	1.23
HCC-78	0.437	0.407	0.333	0.348	0.404	0.69	0.577	0.806	0.698	0.653	0.456	0.449	0.394	0.514	0.39	0.345	0.35	0.301	0.338	0.375
NCI-H2126	0.828	0.819	0.801	0.8	0.724	0.617	0.595	0.571	0.583	0.562	0.76	0.787	0.791	0.812	0.889	1.08	0.998	0.928	0.97	1.02
SK-LU-1	0.805	0.835	0.808	0.817	0.959	0.64	0.726	0.618	0.582	0.598	0.801	0.762	0.883	0.887	0.746	0.999	1.12	1.11	1.02	1.1
LC-2-ad	0.67	0.722	0.736	0.713	0.685	0.829	0.776	0.855	0.804	0.779	0.705	0.805	0.73	0.726	0.737	0.404	0.483	0.496	0.424	0.597
NCI-H23	0.644	0.51	0.674	0.583	0.667	0.327	0.311	0.346	0.299	0.325	0.525	0.604	0.675	0.437	0.545	0.532	0.529	0.619	0.436	0.656
SW 1573	0.735	0.789	0.985	0.741	0.783	0.546	0.544	0.579	0.445	0.617	0.662	0.785	0.873	0.879	0.765	0.745	0.844	0.905	0.917	0.913
HCC-15	0.992	0.91	0.837	0.743	0.823	0.637	0.635	0.681	0.615	0.603	0.853	0.953	0.913	0.927	0.879	0.907	0.84	0.793	0.696	0.825
H3255	0.806	–	0.927	0.844	0.796	0.736	–	0.559	0.508	0.535	–	0.755	0.772	0.784	0.772	0.975	0.79	0.764	0.77	1
SK-MES-1	1.1	1.12	1.25	1.02	1.27	0.324	0.361	0.364	0.348	0.449	1.1	1.38	1.17	1.23	1.24	1.06	0.974	1.07	1.02	1.11

— the supplement of paper PMC10307832
